Tested on: rodent lifetime carcinogenesis bioassay, tumor incidence TD50
Assay: chronic cancer bioassays in animals – CPDB, compiled studies (AID 1745844)
Conditions: rat

Compound: C=CCl
- TD50 (strain Charles River CD (Sprague-Dawley), females, inhaled, site: liver, lesion: hemangiosarcoma, dosed 26 weeks, study length 78 weeks): 115 mg/kg/day
- TD50 (strain Charles River CD (Sprague-Dawley), females, inhaled, site: liver, lesion: hemangiosarcoma, dosed 43 weeks, study length 95 weeks): 69.5 mg/kg/day
- TD50 (strain Charles River CD (Sprague-Dawley), females, inhaled, site: liver, lesion: hepatocellular carcinoma, dosed 43 weeks, study length 95 weeks): 225 mg/kg/day
- TD50 (strain Charles River CD (Sprague-Dawley), females, inhaled, site: liver, lesion: neoplastic nodule, dosed 43 weeks, study length 95 weeks): 315 mg/kg/day
- TD50 (strain Charles River CD (Sprague-Dawley), males, inhaled, site: liver, lesion: hemangiosarcoma, dosed 43 weeks, study length 95 weeks): 103 mg/kg/day
- TD50 (strain Charles River CD (Sprague-Dawley), males, inhaled, site: liver, lesion: hepatocellular carcinoma, dosed 26 weeks, study length 78 weeks): 52.9 mg/kg/day
- TD50 (strain Charles River CD (Sprague-Dawley), males, inhaled, site: liver, lesion: hepatocellular carcinoma, dosed 43 weeks, study length 95 weeks): 265 mg/kg/day
- TD50 (strain Charles River CD (Sprague-Dawley), males, inhaled, site: liver, lesion: neoplastic nodule, dosed 26 weeks, study length 78 weeks): 11.5 mg/kg/day
- TD50 (strain Charles River CD (Sprague-Dawley), males, inhaled, site: liver, lesion: neoplastic nodule, dosed 43 weeks, study length 95 weeks): 34.6 mg/kg/day
- TD50 (strain Fischer 344, females, inhaled, site: all sites, lesion: hemangiosarcoma, dosed 26 weeks, study length 104 weeks): 91.2 mg/kg/day
- TD50 (strain Fischer 344, females, inhaled, site: all sites, lesion: hemangiosarcoma, dosed 52 weeks, study length 104 weeks): 29.5 mg/kg/day
- TD50 (strain Fischer 344, females, inhaled, site: all sites, lesion: hemangiosarcoma, dosed 78 weeks, study length 104 weeks): 32.8 mg/kg/day
- TD50 (strain Fischer 344, females, inhaled, site: all sites, lesion: hemangiosarcoma, dosed 104 weeks, study length 104 weeks): 23.6 mg/kg/day
- TD50 (strain Fischer 344, females, inhaled, site: liver, lesion: hepatocellular carcinoma, dosed 26 weeks, study length 104 weeks): 103 mg/kg/day
- TD50 (strain Fischer 344, females, inhaled, site: liver, lesion: hepatocellular carcinoma, dosed 52 weeks, study length 104 weeks): 101 mg/kg/day
- TD50 (strain Fischer 344, females, inhaled, site: liver, lesion: hepatocellular carcinoma, dosed 78 weeks, study length 104 weeks): 65.2 mg/kg/day
- TD50 (strain Fischer 344, females, inhaled, site: liver, lesion: hepatocellular carcinoma, dosed 104 weeks, study length 104 weeks): 77.2 mg/kg/day
- TD50 (strain Fischer 344, females, inhaled, site: liver, lesion: neoplastic nodule, dosed 26 weeks, study length 104 weeks): 17.6 mg/kg/day
- TD50 (strain Fischer 344, females, inhaled, site: liver, lesion: neoplastic nodule, dosed 52 weeks, study length 104 weeks): 16.2 mg/kg/day
- TD50 (strain Fischer 344, females, inhaled, site: liver, lesion: neoplastic nodule, dosed 78 weeks, study length 104 weeks): 96.3 mg/kg/day
- TD50 (strain Fischer 344, females, inhaled, site: liver, lesion: neoplastic nodule, dosed 104 weeks, study length 104 weeks): 166 mg/kg/day
- TD50 (strain Fischer 344, females, inhaled, site: mammary gland, lesion: adenocarcinoma, dosed 52 weeks, study length 104 weeks): 38 mg/kg/day
- TD50 (strain Fischer 344, females, inhaled, site: mammary gland, lesion: adenocarcinoma, dosed 78 weeks, study length 104 weeks): 74.2 mg/kg/day
- TD50 (strain Fischer 344, females, inhaled, site: mammary gland, lesion: adenocarcinoma, dosed 104 weeks, study length 104 weeks): 264 mg/kg/day
- TD50 (strain Fischer 344, females, inhaled, site: mammary gland, lesion: fibroadenoma, dosed 26 weeks, study length 104 weeks): 15.1 mg/kg/day
- TD50 (strain Fischer 344, females, inhaled, site: mammary gland, lesion: fibroadenoma, dosed 52 weeks, study length 104 weeks): 14.6 mg/kg/day
- TD50 (strain Fischer 344, females, inhaled, site: mammary gland, lesion: fibroadenoma, dosed 78 weeks, study length 104 weeks): 29.7 mg/kg/day
- TD50 (strain Fischer 344, females, inhaled, site: mammary gland, lesion: fibroadenoma, dosed 104 weeks, study length 104 weeks): 32.9 mg/kg/day
- TD50 (strain Sprague-Dawley, females, by gavage, site: Zymbal's gland, lesion: carcinoma, dosed 59 weeks, study length 129 weeks): 5.05 mg/kg/day
- TD50 (strain Sprague-Dawley, females, by gavage, site: any site (literature study), lesion: several types, types named in the paper, dosed 52 weeks, study length 127 weeks): 35.2 mg/kg/day
- TD50 (strain Sprague-Dawley, females, by gavage, site: any site (literature study), lesion: several types, types named in the paper, dosed 59 weeks, study length 129 weeks): 0.878 mg/kg/day
- TD50 (strain Sprague-Dawley, females, by gavage, site: extrahepatic tissue, lesion: angioma, dosed 52 weeks, study length 127 weeks): 408 mg/kg/day
- TD50 (strain Sprague-Dawley, females, by gavage, site: extrahepatic tissue, lesion: angiosarcoma, dosed 52 weeks, study length 127 weeks): 454 mg/kg/day
- TD50 (strain Sprague-Dawley, females, by gavage, site: extrahepatic tissue, lesion: angiosarcoma, dosed 59 weeks, study length 129 weeks): 10.9 mg/kg/day
- TD50 (strain Sprague-Dawley, females, by gavage, site: kidney, lesion: nephroblastoma, dosed 52 weeks, study length 127 weeks): 182 mg/kg/day
- TD50 (strain Sprague-Dawley, females, by gavage, site: liver, lesion: angioma, dosed 52 weeks, study length 127 weeks): 207 mg/kg/day
- TD50 (strain Sprague-Dawley, females, by gavage, site: liver, lesion: angiosarcoma, dosed 52 weeks, study length 127 weeks): 38.6 mg/kg/day
- TD50 (strain Sprague-Dawley, females, by gavage, site: liver, lesion: angiosarcoma, dosed 59 weeks, study length 129 weeks): 3.58 mg/kg/day
- TD50 (strain Sprague-Dawley, females, inhaled, site: Zymbal's gland, lesion: carcinoma, dosed 25 weeks, study length 127 weeks): 1200 mg/kg/day
- TD50 (strain Sprague-Dawley, females, inhaled, site: Zymbal's gland, lesion: carcinoma, dosed 25 weeks, study length 135 weeks): 569 mg/kg/day
- TD50 (strain Sprague-Dawley, females, inhaled, site: Zymbal's gland, lesion: carcinoma, dosed 52 weeks, study length 111 weeks): 67.9 mg/kg/day
- TD50 (strain Sprague-Dawley, females, inhaled, site: Zymbal's gland, lesion: carcinoma, dosed 52 weeks, study length 139 weeks): 1070 mg/kg/day
- TD50 (strain Sprague-Dawley, females, inhaled, site: Zymbal's gland, lesion: carcinoma, dosed 71 weeks, study length 71 weeks): 1190 mg/kg/day
- TD50 (strain Sprague-Dawley, females, inhaled, site: any site (literature study), lesion: several types, types named in the paper, dosed 25 weeks, study length 127 weeks): 309 mg/kg/day
- TD50 (strain Sprague-Dawley, females, inhaled, site: any site (literature study), lesion: several types, types named in the paper, dosed 25 weeks, study length 135 weeks): 51.5 mg/kg/day
- TD50 (strain Sprague-Dawley, females, inhaled, site: any site (literature study), lesion: several types, types named in the paper, dosed 52 weeks, study length 111 weeks): 2.12 mg/kg/day
- TD50 (strain Sprague-Dawley, females, inhaled, site: any site (literature study), lesion: several types, types named in the paper, dosed 52 weeks, study length 139 weeks): 37.4 mg/kg/day
- TD50 (strain Sprague-Dawley, females, inhaled, site: any site (literature study), lesion: several types, types named in the paper, dosed 71 weeks, study length 71 weeks): 70.5 mg/kg/day
- TD50 (strain Sprague-Dawley, females, inhaled, site: brain, lesion: neuroblastoma, dosed 25 weeks, study length 135 weeks): 3630 mg/kg/day
- TD50 (strain Sprague-Dawley, females, inhaled, site: brain, lesion: neuroblastoma, dosed 52 weeks, study length 131 weeks): 4850 mg/kg/day
- TD50 (strain Sprague-Dawley, females, inhaled, site: brain, lesion: neuroblastoma, dosed 71 weeks, study length 71 weeks): 184 mg/kg/day
- TD50 (strain Sprague-Dawley, females, inhaled, site: extrahepatic tissue, lesion: angioma, dosed 25 weeks, study length 135 weeks): 2990 mg/kg/day

Source: PubChem BioAssay AID1745844 (Carcinogenic Potency Database (CPDB), 2022)
